Key:
[1] = system: female Albino Wistar rats; experiment: hair regrowth assay; type: in vivo, rat; details: six month old female Albino Wistar rats; 25, 50, 75 mg/kg body wt daily for four months; dorsal hair plucked from 1.5 cm×1.5 cm, scored two weeks later from digital photographs
Description: (§1) To determine the efficacy of resveratrol-arginine conjugate, six month old female Albino Wistar rats were divided into seven groups (six rats per group) and given the following daily treatment for four months:
(§2) Group 2: 25 mg ResArgin/kg body wt; Group 3: 50 mg ResArgin/kg body wt; Group 4: 75 mg ResArgin/kg body wt; Group 5: 25 mg Resveratrol/kg body wt; Group 6: 50 mg Resveratrol/kg body wt;
In another embodiment, hair regrowth assay was done and quantified. Compared to the Control group, hair regrowth was improved in the ResArgin and resveratrol groups over the experimental period.
In the hair regrowth assay, dorsal hair was removed by plucking from a square of approximately 1.5 cm×1.5 cm. Hair growth and re-growth was scored two weeks later on the basis of digital photographs.

[2] = system: female Albino Wistar rats; experiment: glucose tolerance test; type: in vivo, rat; details: six month old female Albino Wistar rats; 25, 50, 75 mg/kg body wt daily for four months; 6 h fast, 2 g/kg intraperitoneally, blood at 0-120 min; p<0.01 ResArgin, p<0.05 resveratrol
Description: as §1, §2
Group 7: 75 mg Resveratrol/kg body wt. In one embodiment, glucose tolerance levels were tested via a glucose tolerance test and analysis was performed. Compared to the Control group, glucose tolerance was improved in the ResArgin and resveratrol groups (p<0.01 and p<0.05 respectively) over the experimental period.
In one embodiment, glucose tolerance tests were performed after having the rats fast for 6 hours and injecting 2 g/kg body weight intraperitoneally. Blood was then collected from the tail vein at 0, 15, 30, 60 and 120 minutes after injection.

Oc1ccc(C=Cc2cc(O)cc(O)c2)cc1 [resveratrol]
hair regrowth compared to the Control group [1]: improved
glucose tolerance compared to the Control group [2]: improved
